Experimental data as given in US20110124523A1, “High Throughput Method for Detecting Apoptosis of Embryonic Stages of Metazoan Helminthic Parasites” (INSTITUTE OF LIFE SCIENCES, priority 2009, published 2011).
Where “and” joins values, the source holds several entries; their conditions need not be identical. Equal values may be shown once.

Legend:
[1] = system: embryonic stages of S. digitata; experiment: Intra cellular expression of CED-3 protein, flow cytometry; assay type: cell-based, Setaria digitata; conditions: 24 hr
Method: Adult female filarial worms Setaria digitata were collected from the peritoneum of cattle, slaughtered at a nearby abattoir in sterile Hanks Balanced Salt Solution (HBSS) medium (Sigma H 2387-1L) and transported to the laboratory in a sterile container. The medium containing 1% glucose (Sigma G 7528), Penicillin 100 units/ml, Streptomycin 100 μg/ml (Sigma P 4333). And Amphotericin-B 0.25 μg/ml (Sigma A 2942) was buffered with NaHCO3 (Sigma S 5761). About 5 to 7 worms were taken in a petridish, washed three times in medium, dissected into small pieces in 10 ml of medium under sterile conditions and incubated at 37° C. for 30 minutes to allow the release of embryonic stages (eggs and microfilariae) into the medium. The embryonic stages were harvested into sterile 15 ml. centrifuge tubes and washed three times by centrifuging at 300 g for 10 minutes each with medium and the final pellet was suspended in 1 ml. of RPMI-1640 medium (Sigma R 8005) supplemented with 10% FBS (Sigma F 2442) The number of embryonic stages of S. digitata in the above preparation were counted using light microscope, and the suspension was taken in RPMI-1640 medium containing 10% FBS at 1×10^5 embryonic stages/ml. One ml. each was dispensed into individual wells of a 24 well tissue culture plate. One set of wells was taken as untreated control containing only medium with 10% FBS. […] Motility of the Mf was scored under an inverted microscope. After appropriate treatment and incubation, each set of the cultured embryonic stages of S. digitata were harvested from the 24 well tissue culture plate separately in 15 ml. sterile centrifuge tubes, washed with PBS twice and stained as per requirement following manufacturer's instructions as described below. This was followed by two times washing with PBS and final suspension of the stained embryonic stages was taken in 0.5 ml of sheath fluid (BD Biosciences 342003) before their acquisition in the flow cytometer (BD FACS Calibur, Becten and Dickinson, USA). Analysis was performed on 10,000-acquired events depicted as Dot Plots and Histogram Plots using Cellquest Pro soft ware. All plots were representative of at least 3 experiments. The distinctly clustered populations obtained consistently in the Dot plots for the intra uterine embryonic stages of S. digitata (FIG. 1 a) were gated for Mfs (R-1) and eggs (R-2 and R-3) and analyzed for different assays for apoptosis as described below. After in vitro culture for 24 hours with apoptosis inducing reagents the embryonic stages were harvested in 15 ml, sterile centrifuge tubes and fixed for 60 minutes at 0° C. in 1% paraformaldehyde (Sigma P 6148) in PBS. The suspension was washed first with PBS and then with 1× permeabilisation buffer (eBioscience 00-8333-56) and finally resuspended in 100 μl of 1× permeabilisation buffer at 1×10^5 embryonic stages per ml. The intra cellular expression of CED-3 was scored by incubation of the fixed and permeabilised embryonic stages with primary goat antibodies—anti CED-3 (Santacruz sc-9192) followed by Probing with PE conjugated secondary anti goat IgG-PE (Santacruz sc-3747) antibodies. Incubation of both primary and secondary antibodies (both 1/100 diluted) was done successively in 1× permeabilisation buffer (e Bioscience 00-8333-56) for 1 hr and 45 minutes respectively. The suspension of stained embryonic stages was then washed with PBS twice and finally reading was taken by flow cytometry.

[2] = system: embryonic stages of S. digitata; experiment: Mitochondrial depolarization, mitoscreen JC-1 staining; assay type: cell-based, Setaria digitata; conditions: for GMI (Geometric Mean Intensity) of Fluorescence, Mitoscreen-jc-1 staining (Mitochondrial Depolarisation assay): 24 hr, depolarisation = reduction in GMI; for induction of mitochondrial depolarization (result in words): Mfs and eggs, mitoscreen JC-1 staining
Method: Adult female filarial worms Setaria digitata were collected from the peritoneum of cattle, slaughtered at a nearby abattoir in sterile Hanks Balanced Salt Solution (HBSS) medium (Sigma H 2387-1L) and transported to the laboratory in a sterile container. The medium containing 1% glucose (Sigma G 7528), Penicillin 100 units/ml, Streptomycin 100 μg/ml (Sigma P 4333). And Amphotericin-B 0.25 μg/ml (Sigma A 2942) was buffered with NaHCO3 (Sigma S 5761). About 5 to 7 worms were taken in a petridish, washed three times in medium, dissected into small pieces in 10 ml of medium under sterile conditions and incubated at 37° C. for 30 minutes to allow the release of embryonic stages (eggs and microfilariae) into the medium. The embryonic stages were harvested into sterile 15 ml. centrifuge tubes and washed three times by centrifuging at 300 g for 10 minutes each with medium and the final pellet was suspended in 1 ml. of RPMI-1640 medium (Sigma R 8005) supplemented with 10% FBS (Sigma F 2442)
The number of embryonic stages of S. digitata in the above preparation were counted using light microscope, and the suspension was taken in RPMI-1640 medium containing 10% FBS at 1×10^5 embryonic stages/ml. One ml. each was dispensed into individual wells of a 24 well tissue culture plate. One set of wells was taken as untreated control containing only medium with 10% FBS. […] Motility of the Mf was scored under an inverted microscope.
After appropriate treatment and incubation, each set of the cultured embryonic stages of S. digitata were harvested from the 24 well tissue culture plate separately in 15 ml. sterile centrifuge tubes, washed with PBS twice and stained as per requirement following manufacturer's instructions as described below. This was followed by two times washing with PBS and final suspension of the stained embryonic stages was taken in 0.5 ml of sheath fluid (BD Biosciences 342003) before their acquisition in the flow cytometer (BD FACS Calibur, Becten and Dickinson, USA). Analysis was performed on 10,000-acquired events depicted as Dot Plots and Histogram Plots using Cellquest Pro soft ware. All plots were representative of at least 3 experiments. The distinctly clustered populations obtained consistently in the Dot plots for the intra uterine embryonic stages of S. digitata (FIG. 1 a) were gated for Mfs (R-1) and eggs (R-2 and R-3) and analyzed for different assays for apoptosis as described below.
The mitochondrial membrane potential (ΔΨm) was measured using JC-1 probe (a cataionic lipophilic fluorochrome that accumulates in mitochondria in proportion to mitochondrial membrane potential) supplied in mitoscreen JC-1 kit (BD Biosciences 551302). Briefly a suspension of in-vitro cultured embryonic stages at 1×10^5 embryonic stages/ml. was mixed with 0.5 ml of freshly prepared JC-1 working solution for 10-15 minutes at 37° C. in a CO2 incubator followed by two times washing and final suspension of the embryonic stages in 1× assay buffer (supplied with the kit) before acquisition and analysis by flow cytometry. Reduction of fluorescence intensity of the mitoscreen JC-1 stained embryonic stages was taken as the degree of depolarization of mitochondria.

Structure (SMILES)	GMI (Geometric Mean Intensity) of Fluorescence, CED-3 Expression ([1]; Eggs, 1 μM)	GMI (Geometric Mean Intensity) of Fluorescence, CED-3 Expression ([1]; Microfilariae, 1 μM)	GMI (Geometric Mean Intensity) of Fluorescence, Mitoscreen-jc-1 staining (Mitochondrial Depolarisation assay) ([2]; Eggs, 1 μM)	GMI (Geometric Mean Intensity) of Fluorescence, Mitoscreen-jc-1 staining (Mitochondrial Depolarisation assay) ([2]; Microfilariae, 1 μM)	GMI (Geometric Mean Intensity) of Fluorescence, CED-3 Expression ([1]; Eggs, 10 μM)	GMI (Geometric Mean Intensity) of Fluorescence, CED-3 Expression ([1]; Microfilariae, 10 μM)	GMI (Geometric Mean Intensity) of Fluorescence, Mitoscreen-jc-1 staining (Mitochondrial Depolarisation assay) ([2]; Eggs, 10 μM)	induction of mitochondrial depolarization (result in words) [2]	GMI (Geometric Mean Intensity) of Fluorescence, Mitoscreen-jc-1 staining (Mitochondrial Depolarisation assay) ([2]; Microfilariae, 10 μM)
CN[C@@H]1C[C@H]2O[C@@](C)([C@@H]1OC)n1c3ccccc3c3c4c(c5c6ccccc6n2c5c31)C(=O)NC4 [Staurosporine]	92.71 and 96.07 and 90.32	8.33 and 8.10 and 7.39	1549.35 and 1500.65 and 1510.50	895.30 and 979.20 and 930.16					
CC1=CC(=O)c2c(O)cccc2C1=O [Plumbagin]					205.26 and 207.37 and 200.17	32.75 and 34.96 and 31.33	970.16 and 1078.76 and 897.56	dose dependent induction of mitochondrial depolarization was observed	435.26 and 476.20 and 398.76
OO [H2O2]					98.25 and 100.22 and 97.56	10.99 and 12.38 and 9.95	1225.16 and 1165.12 and 1295.39	dose dependent induction of mitochondrial depolarization was observed	785.33 and 823.57 and 750.62
